Measured values taken from patent US20250090551A1, “BUDESONIDE 21-PHOSPHATE SODIUM SALT FOR USE AS ANTI-INFLAMMATORY OR ANTIASTHMATIC AGENT” (GENETIC S.P.A., priority 2021, published 2025).
≈ marks a conversion by molar mass, not a printed value.

How the values were obtained:
[1] = tested on: methacholine-induced bronchoconstriction in OVA-induced allergic Balb/c mice; assay: Lung hyperreactivity / Penh function in OVA-induced allergic asthma; assay type: in vivo; settings: 3, 10 and 30 nmol/animal/day i.n., 4 weeks; vs untreated OVA group
Procedure: (§1) In Protocol 2, the test compounds Bud (MW: 430.53 g/mol) and Bud-21 P Na2 (MW: 554.48 g/mol) were administered at equimolar doses of 3, 10 and 30 nmol/animal/day, equivalent to 1.3, 4.3 and 12.9 μg/animal/day of Bud, 1.7, 5.5 and […] of Bud-21 P Na2, respectively. The compounds were dissolved in 10% sterile saline+90% DMSO (Sigma Chemical Co., St. Louis, MO) at the correspondent concentrations at which the above-mentioned doses per animal result from the intra-nasal (i.n.) administration of 10 μl/animal (5 μl/nostril) of each of the solutions.
Chicken egg-white ovalbumin (OVA; grade V, cat. A5503, Sigma Chemical Co., St. Louis, MO) was dissolved in sterile phosphate buffered saline (PBS) solution (250 μg/ml) and Al(OH)3 was added (at 13 mg/ml). This mix was used to induce the allergic sensitization of the animals by subcutaneous injection. OVA was dissolved at 1% in sterile PBS solution and this solution was nebulized (as the immunological challenges).
(§2) Mice were sensitized with two subcutaneous injections of 0.2 ml of OVA/Al(OH)3, with an interval of 7 days (Sham animals received the Al(OH)3 suspension in PBS with no OVA). Seven days after the second sensitization (i.e., 3rd week), the animals were nebulized twice a week with the 1% OVA solution (Sham and untreated OVA groups were nebulized with PBS) during 20 minutes for the next 2 weeks.
Three hours after the challenges (OVA nebulization) and daily during the next 4 weeks (following the first OVA challenge), mice were intra-nasally treated (10 μl/animal as 5 μl/nostril) with the respective compounds/vehicle, and the last dose was administered 30 min before the Penh measurement at the end of the 6th week.
Airway responsiveness in conscious, spontaneously breathing animals was measured at the end of the 6th week (i.e., after 4-week OVA challenges+treatments), 24 h after the last OVA/PBS challenge via whole body plethysmography (Buxco Europe Ltd, Winchester, UK), as previously described (Santos et al., 2014). Experiments were carried out in a quiet room by an investigator who was unaware of the nature of treatments.
Aerosolized saline (50 μl/mouse during 60 s) and then the muscarinic agonist methacholine (MCh) at increasing concentrations (3.12, 6.25, 12.5 and 25.0 mg/ml in PBS) was nebulized through an inlet of the main chamber for 3 min each to induce bronchoconstriction and readings were taken and averaged for 6 min following each nebulization. After 20 min, the baseline values usually returned at the end of this period. Enhanced pause (Penh) was measured as an indicator of bronchoconstriction and consequent increase of airway resistance as: Penh=[(expiration time/relaxation time)−1]/(maximum expiration flow/maximum inspiration flow).

[2] = at physiological pH in the intestinal region; cited from earlier work
[3] = tested on: carrageenan-induced paw edema in CD-1 mice; assay: Carrageenan-induced paw edema; assay type: in vivo; settings: first phase; for time after carrageenan at which the significant inhibition level is reached (onset of effect): dose of 0.3 mg/kg, i.p.; for dose relation of anti-inflammatory effect / maximum inhibition of edema: doses 0.1, 0.3, 1 mg/kg i.p.; for maximum inhibition of edema: Bud-21 P—Na2 maximum with either 0.3 or 1 mg/kg
Procedure: In Protocol 1 (paw edema), the test compounds budesonide (Bud) and budesonide 21-phosphate sodium salt (Bud 21-P Na2) have been tested. Both compounds were administered in a volume of 100 μl intraperitoneally 1 hour before the induction of the inflammatory reaction. Doses of 0.1, 0.3 e 1 mg/kg were tested.
Carrageenan edema in the paw of the CD-1 mice involves the sub-plantar administration of 50 μl of 1% carrageenan and the measurement of the increase in the volume of the paw by using a hydroplethysmometer. This experimental model has a biphasic development (Posadas et al., Br J Pharmacol 2004 May; 142(2):331-338). The first phase, which is acute, is sustained by an increase in permeability accompanied by infiltration of neutrophils, which develops and resolves between 4 and 5 hours. The second phase occurs after 24 hours and is characterized by macrophage infiltration and has the characteristics of sub chronic inflammation, which reaches its maximum after 72 hours and resolves after 5 days. Bud and Bud 21-P Na2 have been tested. Both compounds were administered in a volume of 100 μl intraperitoneally 1 hour before the induction of the inflammatory reaction. Doses of 0.1, 0.3 e 1 mg/kg were tested.

[4] = tested on: BK- and C48/80-induced plasma extravasation in dorsal skin of C57Bl/6 mice; assay: Skin edema (plasma extravasation, Evans blue method) induced by BK or C48/80; assay type: in vivo; settings: for BK-induced plasma extravasation / reduction of C48/80-induced plasma extravasation: 2.32 μmol/kg i.p. (1.0 mg/kg Bud, 1.3 mg/kg Bud-21 P—Na2) 60 min before i.d. injection, 30 min
Procedure: In Protocol 3, Bud (at doses of 1.0 and 0.30 mg/kg) and Bud 21-P Na2 (at doses of 1.3 and 0.39 mg/kg) were administered on a molar base, these doses were equivalent to […] μmol/kg of each compound, respectively. The vehicle for dissolution of the compounds was sterile saline solution (0.9% NaCl) containing 12.5% DMSO (Sigma Chemical Co., St. Louis, MO). The compound solutions were prepared at concentrations such that the administered dose per kg of body weight results from the intraperitoneal (i.p.) administration of 10 ml/kg of each of the solutions.
Skin edema was assessed in mice according to the method previously described by Costa et al. (2006), Vasc. Pharmacol; 45: 209-214 and Yshii et al (2009), Toxicon; 53: 42-52. The mice were anesthetized with urethane (25% w/v, 10 ml/kg, i.p.), had their dorsal skin shaved, and thereafter i.p. treated with the vehicle/test compounds. Fifty-five minutes later, a volume of 100 μL of Evans blue dye solution (0.25% in sterile saline) was intravenously (i.v.) injected via the tail vein. Five minutes later, the BK and C48/80 were intradermally (i.d.) injected into the dorsal skin at a fixed volume of 50 μl using a randomized scheme. The same volume of Tyrode solution 50 μl was injected as a control. Thirty minutes later, a 1 ml blood sample was obtained via cardiac puncture and the mice were killed by urethane overdose followed by cervical dislocation. The blood samples were centrifuged at 6,000 g for 4 min to obtain the plasma. The dorsal skin was removed, and the injected sites were punched out using an 8 mm diameter cork borer. A non-injected skin site distant from the injection sites was also punched and taken as a blank. The dye was extracted from each piece of skin and plasma (100 μl) samples using formamide, and the absorbance of the resulting solutions was measured at 620 nm. The plasma extravasation due to each agent (expressed in μl/site) was calculated as the ratio between the absorbance of each respective skin piece, corrected by the blank value and plasma sample solutions, properly adjusted by the dilution factors [Vasc. Pharmacol (2006); 45: 209-214]. To homogenate data due to the variability of different group of animals (inter-group variations), edema data are expressed as the fold-change response relative to the mean Tyrode (control) response of each experiment.

[5] = cited from earlier work
[6] = tested on: leukocyte recruitment to the bronchoalveolar space in OVA-induced allergic Balb/c mice; assay: BAL fluid total and differential leukocyte counts in OVA-induced allergic asthma; assay type: in vivo; settings: 4 weeks, vs Sham
Procedure: as §1
as §2, with “[…]. […]” for “weeks.”
After Penh evaluation, the mice were anesthetized with inhaled isofluorane (5% v/v in O2) and blood samples were collected from the descending abdominal aorta. […] Total cell counts were determined using a Neubauer chamber, and differential counting was carried out in cytospin (Fanem Mod 2400; Sao Paulo, Brazil) preparations stained with May-Grünwald dye. […]

[7] = 0.70 μmol/kg i.p. (0.30 mg/kg Bud, 0.39 mg/kg Bud-21 P—Na2)

Molecule | Penh AUC (area under Penh vs methacholine curve) [1] | Penh Emax (maximal response) [1] | solubility in water [2] [mg/mL] | time after carrageenan at which the significant inhibition level is reached (onset of effect) [3] [h] | dose relation of anti-inflammatory effect [3] | maximum inhibition of edema [3] | BK-induced edema [4, 7] | C48/80-induced edema [4, 7] | BK-induced plasma extravasation [4] | reduction of C48/80-induced plasma extravasation [4] | logP [5] | total BAL leukocytes compared with Sham ([6]; 3 nmol/animal/day i.n.) | BAL macrophages compared with Sham ([6]; either 3 or 10 nmol/animal/day i.n.) | inhibition of edema formation ([3]; 0.1 mg/kg i.p. 60 min before carrageenan) [%]
CCCC1OC2CC3C4CCC5=CC(=O)C=CC5(C)C4C(O)CC3(C)C2(C(=O)CO)O1 (stereo not drawn) [Bud, 11β,21-dihydroxy-16α,17α-(butylidenebis(oxy))pregna-1,4-diene-3,20-dione] | significant reduction of this response just at the highest dose | significant reduction of this response just at the highest dose | 0.028 (≈ 65 µM) | 6 | not dose-related | about 50% | ineffective | ineffective | abolished | approximately 50% | 3.2 | still significantly higher than that observed in the Sham mice | still significantly higher than those observed in the Sham group | 
Budesonide 21-phosphate sodium salt [Bud-21 P—Na2] | significantly reduced | significantly reduced |  | 2 | dose-related anti-inflammatory effect | 70% |  | significantly inhibited | abolished | approximately 50% |  |  |  | 50
